The values that follow come from patent publication US20240425512A1, “NITROGEN-CONTAINING HETEROCYCLIC COMPOUND, PHARMACEUTICAL COMPOSITION THEREOF AND APPLICATION THEREOF” (280 Bio, Inc., priority 2023, published 2024).

Read-outs that look alike come from different tables or passages of the source.

In data set [1] the test system is SW620 colon cancer cell with KRAS G12V mutation. Put plainly: Proliferation inhibition on RAS cell lines measured by CTG, SW620. It is filed as cell-based. The settings on record: Table 1, SW620 cells, incubated for 6 days, CellTiter Glo, read-out: IC50 (SW620 ^c). The text has this: (§1) NCI-H358 is a human non-small cell lung cancer cell line with KRAS G12C mutation; AGS is a gastric cancer cell line with KRAS G12D mutation; SW620 is a colon cancer cell with KRAS G12V mutation; NCI-H460 is a non-small cell lung cancer cell with KRAS Q61H mutation; MKN1 is a wild-type gastric cancer cell with KRAS-amplified; LS513 is a colon cancer cell with KRAS G12D mutation; LoVo is a colon cancer cell with KRAS G13D mutation; NCI-H441 is a lung cancer cell with KRAS G12V mutation, and Capan-2 is a pancreatic cancer cell with KRAS G12V mutation.
(§2) The proliferation inhibitory effect of the compounds on various mutations was evaluated by determining the proliferation inhibitory activity of the compounds on these cell lines.
(§3) The assay was conducted on either 384-well plates or 96-well plates. The procedures are as follows:
(§4) The cell suspensions were added to 384- or 96-well plates (384-well plate: 50 μL; 96-well plate: 100 μL) except for peripheral wells. The plates were placed in a carbon dioxide incubator overnight. NCI-H358, AGS, NCI-H460, MKN-1, LS513, LoVo, and NCI-H441 were placed in a 5%, 370 carbon dioxide incubator overnight, and SW620 was placed in a 0%, 370 carbon dioxide incubator overnight. The HPD300 micro-dosing instrument was used to add the corresponding concentration of compound to each well (9-10 concentration gradients of compound were obtained by 3-fold dilution). Cell plates were incubated in a carbon dioxide incubator for 5-6 days. NCI-H358, AGS, NCI-H460 and MKN-1 were incubated at 5%, 37° incubator and SW620 was incubated at 0%, 370 incubator. On the day of plate measurement, the 384- or 96-well plates were first equilibrated at room temperature for 10-30 min, then CellTiter Glo reagent (384-well plate: 25 μL; 96-well plate: 100 μL) was added to the 384- or 96-well plate, shaken for 10 min away from light, and incubated for 10 min. The plates were placed into Victor NIVO or ENVIDION reader plates, and XLFit was utilized to plot the pharmacodynamic inhibition curve and calculate the IC50 value. “IC50>10 μM” is denoted by “*”, “10 μM≥IC50≥1 μM” is denoted by “**”, and “1 μM≥IC50>100 nM” is denoted by “***”, “IC50<100 nM” is denoted by “****”
For orientation: ATP-based viability assays read luminescence as a measure of living cells.

Data set [2] relates to LS513 colon cancer cell with KRAS G12D mutation. Put plainly: Proliferation inhibition on RAS cell lines measured by CTG, LS513. It is filed as cell-based. The settings on record: LS513 cells, incubated for 6 days, read-out: IC50 (LS513^f). The method in brief: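 Cells were seeded overnight in a 5% CO2 incubator. Compound was added as 9-10 point, 3-fold dilutions and incubated 5-6 days, with NCI-H460 and AGS stated at 5% CO2, 37°. Viability was read by CellTiter-Glo luminescence, and IC50 was taken from the inhibition curve.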

The subject of data set [3] is AGS gastric cancer cell line with KRAS G12D mutation. Put plainly: Proliferation inhibition on RAS cell lines measured by CTG (CellTiter Glo), AGS. It is filed as cell-based. The settings on record: Table 1, AGS cells, incubated for 5 days.
Source text: as §1, §2, §3, §4

Data set [4] deals with NCI-H460 non-small cell lung cancer cell with KRAS Q61H mutation. Put plainly: Proliferation inhibition on RAS cell lines measured by CTG, NCI-H460. It is filed as cell-based. Particulars: Table 1, NCI-H460 cells, incubated for 6 days, CellTiter Glo, read-out: IC50 (NCI-H460 ^d).
Source text: as §1, §2, §3, §4

The test system of data set [5] is NCI-H441 lung cancer cell with KRAS G12V mutation. Put plainly: Proliferation inhibition on RAS cell lines measured by CTG, NCI-H441. The settings on record: NCI-H441 cells, incubated for 6 days. It is filed as cell-based.
Source text: as §1, §2, §3, §4

For data set [6], the system named is LoVo colon cancer cell with KRAS G13D mutation. Put plainly: Proliferation inhibition on RAS cell lines measured by CTG, LoVo. It is filed as cell-based. The settings on record: LoVo cells, incubated for 6 days, read-out: IC50 (LoVo^g).
Source text: as §1, §2, §3, §4

Data set [7] deals with MKN1 wild-type gastric cancer cell with KRAS-amplified. Put plainly: Proliferation inhibition on RAS cell lines measured by CTG, MKN1. The settings on record: Table 1, MKN1 cells, incubated for 6 days, CellTiter Glo, read-out: IC50 (MKN1 ^e). It is filed as cell-based.
Source text: as §1, §2, §3, §4

The test system of data set [8] is NCI-H358 human non-small cell lung cancer cell line with KRAS G12C mutation. Put plainly: Proliferation inhibition on RAS cell lines measured by CTG, NCI-H358. It is filed as cell-based. The settings on record: Table 1, NCI-H358 cells, incubated for 6 days, CellTiter Glo, read-out: IC50 (H358 ^b).
Source text: as §1, §2, §3, §4

Data set [9] in a line: Pharmacokinetic study in mice after intravenous administration. The settings on record: mouse, 5 mg/kg, male C57BL/6J mice, plasma. It is filed as in vivo. Here is the method:
(§5) After intravenous and oral administration in male C57BL/6J mice (6-8 weeks), plasma samples were collected through the orbital venous plexus at 8 time points (5 min, 15 min, 30 min, 1 h, 2 h, 4 h, 7 h, 24 h), and the collected blood samples were transferred to microcentrifuge tubes containing EDTA-K2 anticoagulant, and centrifuged at 4° C., 4,000 g. After 5 min, the supernatant was taken and stored in a refrigerator at −75° C. ±15° C. LC-MS/MS was used to detect the concentrations of the compounds in the plasma at different time points, and the relevant pharmacokinetic parameters […] were calculated using WinNonlin software.

Data set [10] is described as follows: Pharmacokinetic study in mice after oral administration. It is filed as in vivo. The settings on record: mouse, 30 mg/kg, male C57BL/6J mice, plasma. Here is the method:
as §5

[11] abbreviates: Homo sapiens, LS-513, 144 h, Table 1, CellTiter Glo.
[12] abbreviates: Homo sapiens, NCI-H441, 144 h, Table 1, CellTiter Glo.
[13] abbreviates: Homo sapiens, LoVo, 144 h, Table 1, CellTiter Glo.

For orientation: IC50 means the concentration that inhibits the measured activity by half. With `CCc1c(F)ccc2cc(O)cc(-c3ncc4c(N5CC(C)(O)CCN5)nc(OCC56CCCN5CC(F)C6)nc4c3F)c12` (single isomer, unassigned) [Compound 2-1], the IC50 was under 0.1 µM in [1]; under 0.1 µM in [2] (Table 1, CellTiter Glo); under 0.1 µM in [3]; 1 to 10 µM in data set [4]; 0.1 to 1 µM in [5] (Table 1, CellTiter Glo, read-out: IC50 (NCI-H441^h)); under 0.1 µM in data set [6] (Table 1, CellTiter Glo). In addition, the IC50 in data set [7] and in data set [8] was under 0.1 µM in each case.
As for `CCc1c(F)ccc2cc(O)cc(-c3ncc4c(N5CCCCCN5)nc(OC[C@@]56CCCN5C[C@H](F)C6)nc4c3F)c12` [Compound 3], the IC50 in [1] (Homo sapiens, SW-620, 144 h) was under 0.1 µM; in data set [3] (Homo sapiens, 120 h), under 0.1 µM; in data set [4] (Homo sapiens, 144 h), 0.1 to 1 µM; in data set [7] (Homo sapiens, MKN-1, 144 h), under 0.1 µM; in data set [8] (Homo sapiens, 144 h) it was under 0.1 µM.
Usually AUC(0-inf) stands for total exposure, with the tail of the curve extrapolated. A higher AUC(0-inf) goes with high exposure. One may read the AUC(0-t) as exposure summed from dosing to a finite time, without extrapolation to infinity. One may read the clearance as the rate of elimination divided by the concentration. As usually defined, the half-life is the time in which the quantity being followed falls by half. In general, Cmax refers to the maximum level reached in the sampled fluid or tissue. A word on the Tmax: it is the time at which the peak concentration occurs. Take `C#Cc1c(F)ccc2cc(O)cc(-c3ncc4c(N5CCCCCN5)nc(OC[C@@]56CCCN5C[C@H](F)C6)nc4c3F)c12` [Compound 4]: the AUC(0-inf) was 24300 ng·h/mL in [9] and 10400 ng·h/mL in data set [10]. In addition, the AUC(0-t) in data set [9] turned out to be 24300 ng·h/mL; in [10] it was 10400 ng·h/mL. Also, the C0 in [9] came out at 96100 ng/mL. In [9], this compound returned a clearance of 3.43 mL/min/kg. Besides, the half-life in [9] (5% DMSO + 10% Solutol HS15 + 85% (20% HP-β-CD in water)) was 2.63 h; in [10] (0.1% Tween 80 + 0.5% MC in water), 1.89 h. Moreover, in [9] (read-out: Vss), the Vd is 0.205 L/kg. Moreover, the IC50 in [1] (Homo sapiens, SW-620, 144 h) is under 0.1 µM; in data set [2] (Homo sapiens, LS-513, 144 h, Table 1, numeric value) it was 0.0036 µM; in data set [2] (setting [11]), under 0.1 µM; in data set [3] (Homo sapiens, 120 h), under 0.1 µM; in data set [4] (Homo sapiens, 144 h) it was 0.1 to 1 µM; in [5] (Homo sapiens, NCI-H441, 144 h, Table 1, numeric value), 0.0036 µM. Also, the IC50 is under 0.1 µM in [5] (setting [12]); 0.0078 µM in [6] (Homo sapiens, LoVo, 144 h, Table 1, numeric value); under 0.1 µM in data set [6] (setting [13]); under 0.1 µM in data set [7] (Homo sapiens, MKN-1, 144 h); under 0.1 µM in [8] (Homo sapiens, 144 h). The compound further registered a Cmax in data set [10] of 2290 ng/mL. Further, in data set [10], the Tmax was determined as 4 h.
For the compound `C#Cc1c(F)ccc2cc(O)cc(-c3ncc4c(N5CCOCCN5)nc(OC[C@@]56CCCN5C[C@H](F)C6)nc4c3F)c12` [Compound 7], the IC50 in data set [1] was under 0.1 µM; in data set [3], under 0.1 µM; in [4], 1 to 10 µM; in [7], 0.1 to 1 µM; in data set [8], under 0.1 µM.
For `CCc1c(F)ccc2cc(O)cc(-c3ncc4c(N5CCOCCN5)nc(OC[C@@]56CCCN5C[C@H](F)C6)nc4c3F)c12` [Compound 8], the IC50 was under 0.1 µM in [1] (Homo sapiens, SW-620, 144 h); under 0.1 µM in [3] (Homo sapiens, 120 h); 0.1 to 1 µM in [4] (Homo sapiens, 144 h); under 0.1 µM in data set [7] (Homo sapiens, MKN-1, 144 h); under 0.1 µM in data set [8] (Homo sapiens, 144 h).
For the compound `CCc1c(F)ccc2cc(O)cc(-c3ncc4c(N5CCCCCO5)nc(OC[C@@]56CCCN5C[C@H](F)C6)nc4c3F)c12` [Compound 10], the results for the IC50 in data set [2] (setting [11]), in data set [5] (setting [12]) and in data set [6] (setting [13]) were under 0.1 µM, 0.1 to 1 µM and 0.1 to 1 µM, respectively.
`C#Cc1c(F)ccc2cccc(-c3ncc4c(N5CCCCCN5)nc(OC[C@@]56CCCN5C[C@H](F)C6)nc4c3F)c12` [Compound 11]: the results for the IC50 in data set [2] (setting [11]), in data set [5] (setting [12]) and in data set [6] (setting [13]) were under 0.1 µM, 0.1 to 1 µM and 0.1 to 1 µM, respectively.
